Structures are written as SMILES. Where only a bound is given, the exact number is not on record here.

The record followed here is US20240165259A1, “BIOORTHOGONAL REACTION SUITABLE FOR CLICK/UNCLICK APPLICATIONS” (DANA-FARBER CANCER INSTITUTE, INC., priority 2021, published 2024).

In the assay the target is T1, HaloTag protein (Rhodococcus rhodochrous, UniProt P0A3G2, A155T/A167V/A172T/A224E/C128F/C176G/D78G/E160K/E257K/H272N/K175M/K195N/L47V/L88M/N227D/S58T/T264A/Y273L/Y87F).
T1 construct: made in house; host or cells: E. coli (the text prints transformation into DH5a; BL21(DE3) was also purchased)
Put plainly: HaloTag protein labeling, in-gel fluorescence (time- and concentration-dependent). Conditions: HaloTag protein conjugated to alkyne 21′, 200 μM 22′, room temperature. In kind it is biochemical. Here is the method:
The viability of the reaction was evaluated both in vitro and in cells (FIG. 14A-FIG. 14B). Purified recombinant HaloTag protein (Los et al., ACS Chem. Biol. 3(6):373-382 (2008); Murrey et al., J. Am. Chem. Soc. 137(35):11461-11475 (2015)) was incubated with HaloTag linker-conjugated difluoropropargyl ether 21′ for 10 minutes at room temperature in pH 7.0 phosphate buffer to provide alkyne-conjugated protein. This protein was then treated with 200 μM TAMRA-N-methylhydroxylamine 22′ and analyzed at various time points by in-gel fluorescence.
Buffer A: pH 7.0, 50 mM NaH2PO4, 20 mM NaCl
A stock solution of HaloTag® protein (15.3 μL, 2.01 mg/mL in buffer A) was added to 29.7 μL of buffer A to prepare a HaloTag® working solution (solution A, 19.7 μM, 45 μL). […]
A solution of alkyne 21′ in DMSO (700 μM) was added to reactions C (0.22 μL) and D (1.10 μL). […] In-gel fluorescence was imaged with a Typhoon™ FLA 9500 (GE) at 532 nm with a photomultiplier tube (PMT) setting of 500 V. The experiment was carried out in triplicate (FIG. 21A-FIG. 21B). […]
A solution of alkyne 21′ in DMSO (700 μM) was added to reactions C (0.22 μL) and D (0.88 μL). […] In-gel fluorescence was imaged with a Typhoon™ FLA 9500 (GE) at 532 nm with a photomultiplier tube (PMT) setting of 500 V. The experiment was carried out in triplicate (FIG. 22A-FIG. 22B).

T1 sequence (P0A3G2 other isoform, or with tags, fused parts or gaps with the stated changes): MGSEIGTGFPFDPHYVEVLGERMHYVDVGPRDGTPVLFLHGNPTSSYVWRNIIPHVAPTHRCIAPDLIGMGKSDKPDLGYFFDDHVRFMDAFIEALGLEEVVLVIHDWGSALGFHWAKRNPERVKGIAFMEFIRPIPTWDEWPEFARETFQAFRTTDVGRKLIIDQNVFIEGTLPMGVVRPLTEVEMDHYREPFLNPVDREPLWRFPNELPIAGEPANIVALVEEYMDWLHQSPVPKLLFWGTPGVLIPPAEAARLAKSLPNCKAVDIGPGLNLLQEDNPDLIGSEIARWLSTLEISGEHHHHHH

In the case of `CN(O)CCOCCNC(=O)c1ccc2c(c1)C1(OC2=O)c2ccc(N(C)C)cc2Oc2cc(N(C)C)ccc21` [compound 13, 3′,6′-bis(dimethylamino)-N-(2-(2-(hydroxy(methyl)amino)ethoxy)ethyl)-3-oxo-3H-spiro[isobenzofuran-1,9′-xanthene]-6-carboxamide], the “time at which fluorophore-labeled protein was observed” value was ≤ 1 min.
